From patent US5684020A, “Piperazine, piperidine and 1,2,5,6-tetrahydropyridine” (Adir et Compagnie, priority 1995, dated 1997)

Key:
schizophrenia patients = conditions: Davis et al., 1983; cited from earlier work
[1] = Induction of catalepsy in the rat; conditions: in vivo, sc, 1 hour after injection, 50% of maximum 30 seconds
Source text: 3. Induction of catalepsy in the rat
The acute administration of "typical" antipsychotics to an animal induces catalepsy, that is to say the maintenance of the animal in an often abnormal posture which has been imposed upon it by the experimenter (Waldmeier, 1979). The evaluation of the cataleptogenic properties of a product in the rat thus makes it possible to know whether that product, administered to man, will or will not risk causing an extrapyramidal-type syndrome.
Test: The animals are placed in individual cages and food is withdrawn the day before the test but water taken as desired. The catalepsy test comprises placing each rear paw of the animal on the front paw of the same side and measuring the time (seconds) that the animal remains in that "crossed paws" position (maximum 30 seconds). Each animal is subjected to 3 successive tests (one every two minutes), the animal being removed from its cage and placed on the work surface. Those tests are carded out 1 hour after the subcutaneous injection or oral administration of the product or its solvent. The average value of 3 tests represents the duration of the catalepsy (seconds) for each animal. There are 5 or 6 rats per experimental group.
Statistical analysis: The effect of the product on the duration of the catalepsy is evaluated by an ANOVA, followed by a Dunnett's test, with the probability p<0.05. […]

[2] = tested on: Verticalisation induced by apomorphine; assay: Verticalisation induced by apomorphine in the mouse; type: in vivo; conditions: sc, 0.5 h, s.c., apomorphine 0.75 mg/kg s.c. 30 minutes later, read-out: ID50 (dose reducing by half the average verticalisation score)
Experimental: 1. Verticalisation induced by apomorphine (0.75 mg/kg, s.c.) in the mouse
This test, described by Protais et al (Psychopharmacologie, 1976, 50, 1-6) allows the evaluation of the dopaminergic antagonist activity of possible antipsychotic products. A mouse to which apomorphine has been administered and which has been placed in a cage comprising vertical bars, remains most of the time immobile at the top of the cage clinging by its 4 paws to the bars. That verticalisation behaviour is blocked if a dopaminergic antagonist product has been administered before the apomorphine.
Test: After the subcutaneous (s.c.) administration of the product or solvent (control group), the mouse is placed in a cylindrical barred cage (14 cm diam.×14 cm h) having vertical bars. Thirty minutes later, the animal receives the apomorphine dose (0.75 mg/kg, s.c.). […]
Statistical analysis: The effect of the product on verticalisation is evaluated by comparing the scores obtained for each group that has been administered a dose of product with those obtained for the control group (solvent) using a Mann and Whitney U test, with a probability p<0.05. […]

[3] = tested on: aggressiveness in isolated mice; assay: Test of aggressiveness in isolated mice; type: in vivo, male CD mice; conditions: Mus musculus, sc; 30 minutes before test; read-out: ID50 (dose reducing by half number or duration of attacks)
Source text: 2. Test of aggressiveness in isolated mice
This test allows the evaluation of the intraspecies anti-aggressive activity of a product in mice that have been kept in isolation for several months.
Animals: The test uses male CD mice (Charles River) weighing from 22 to 25 g when they arrive at the animal house. On their arrival, the animals are isolated in individual cages made of opaque black polycarbonate (23×14×13 cm) with a grill lid, and are housed for a prolonged period (approximately 6 months) in the experimentation room.
Selection of pairs of mice: The selection of aggressive pairs of mice that will be used chronically in the study commences after the animals have been isolated for one month. […]
Test: The test takes place once a week. […] The latent period (in seconds) of the first attack and the number and total duration (in seconds) of the attacks are recorded. […]
Statistical analysis: The effects of a product on aggressiveness are evaluated by comparing the number and the duration of the attacks by the pairs of mice that have received the product (treated groups) with those obtained with the pairs that have received the solvent (control group) by using a variance analysis (ANOVA) followed by a Dunnett's test, with the probability p<0.05. […]

dopamine turnover = assay: Dopamine turnover (DOPAC/dopamine ratio) in rat brain structures; type: in vivo, Male Wistar rats; conditions: regions studied: frontal cortex, nucleus accumbens, olfactory tubercles, striatum
Experimental: by dopamine synthesis (turnover) studies in the following structures: frontal cortex (mesocortical pathway), nucleus accumbens and olfactory tubercle (mesolimbic pathway), striatum (nigrostriatal pathway). The functional dopaminergic antagonists cause an increase in the synthesis of dopamine in those structures.
Male Wistar rats (Iffa Credo, Illskirchen France) weighing 250 to 280 g are kept in a 12h/12h light/darkness cycle (light switched on at 7.30 a.m.). They have free access to water and food; the laboratory temperature is 21°±1° C. and the humidity is 60±5%.
Dopamine turnover: The effect of the products of the invention and the reference product on dopamine turnover is determined after subcutaneous injection. After a period of 30 minutes, the rats are decapitated and the brain is dissected in order to extract the striatum, the nucleus accumbens, the frontal cortex and the olfactory tubercles. The tissues are homogenised in 500 μl of HClO4 0.1M containing 0.5% Na2 S2 O5 and 0.5% EDTA Na2 and centrifuged at 15,000 g for 15 minutes at 4° C. The supernatants are diluted in the mobile phase and injected into an HPLC column (Hypersil ODS 5 μm, C18, 150×4.6mm, Thermo Separation Products, Les Ulis, France) thermostatically controlled at 25° C. […]

Row | SMILES | extrapyramidal symptoms (in words) (schizophrenia patients) | ED50 at 1 h [1] | ED50 [2] | ED50 [3] | effect on dopaminergic transmission (in words) (dopamine turnover)
1 | CN(C)CCCN1c2ccccc2Sc2ccc(Cl)cc21 [chlorpromazine] | often brings about the appearance of undesirable extrapyramidal symptoms (EPS) of the Parkinson's type |  |  |  | 
2 | c1ccc2c(c1)CC(CN1CCN(c3ccc4c(c3)OCCO4)CC1)C2 [Example 6, 4-(2,3-Dihydrobenzo-1,4-dioxin-6-yl)-1-(indan-2-ylmethyl)piperazine] |  | > 80 mg/kg | 3.88 mg/kg | 0.99 mg/kg | 
3 | O=C(CCCN1CCC(O)(c2ccc(Cl)cc2)CC1)c1ccc(F)cc1 [Haloperidol] | often brings about the appearance of undesirable extrapyramidal symptoms (EPS) of the Parkinson's type | 0.146 mg/kg |  |  | significant effect on dopaminergic transmission in each of the regions studied
4 | CN1CCN(C2=Nc3cc(Cl)ccc3Nc3ccccc32)CC1 [clozapine] | cause few extrapyramidal symptoms |  |  |  | 
